Results reported in patent publication US20250084056A1, “SUBSTITUTED OXOISOINDOLINYL PIPERIDINE-2,6-DIONE COMPOUNDS” (BRISTOL-MYERS SQUIBB COMPANY, priority 2023, published 2025).

What was measured:
Type in all cases: cell-based
Phospho-Rb (Ser807/811) = assay: Phospho-Retinoblastoma (pRB) Cellular Assay; conditions: Homo sapiens, OVCAR-3, NIH OVCAR3 cells, 24 hours; for IC50: concentration giving 50% response; for Emax: maximum response, reference compound at 10 μM = 100%, read-out: pRB Ymax
Procedure, shortened: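 OVCAR3 cells seeded overnight, then dosed with serial dilutions for 24 h at 37° C. Lysed with kit mix plus phosphatase inhibitor, ≥4 h at room temperature, read on EnVision; 100% response set by reference compound at 10 μM, giving IC50 and Ymax.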

Cyclin E1 = Cyclin E1 (Homo sapiens, UniProt P24864+Q96SW2); assay: Cyclin E1 Cellular Degradation Assay (MSD); design: endogenous in cells; host or cells: OVCAR3; conditions: for DC50 / Dmax: Cyclin E1 cellular degradation; for Dmax: maximum degradation; for Ratio of GSPT1 DC50/Cyclin E1 DC50: selectivity for degradation of Cyclin E1 over GSPT1
Procedure, shortened: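 OVCAR3 cells treated with compound for 24 h at 37 °C, lysed, and cyclin E1 measured by MSD sandwich immunoassay (rabbit capture, mouse detection anti-CCNE1). Reference degrader at […] defined 110% response; DC50 and Dmax derived from response.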

GSPT1 = GSPT1 (Homo sapiens, UniProt P15170+Q96SW2); assay: GSPT1 Cellular Degradation Assay (DF15-GSPT1-ePL); design: expressed in transfected cells; conditions: DF15-GSPT1-ePL cells, 20 hours
Procedure, shortened: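 Human DF15 cells co-expressing a GSPT1–ePL fusion were treated with compound in RPMI 1640/10% FBS for 20 h at 37 °C. GSPT1 level was read by enzyme-fragment-complementation luminescence after 60 min with detection reagent. The reference degrader at […] defined 75% response; DC50 and Dmax were reported.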

Chain of Cyclin E1 (P24864 whole entry): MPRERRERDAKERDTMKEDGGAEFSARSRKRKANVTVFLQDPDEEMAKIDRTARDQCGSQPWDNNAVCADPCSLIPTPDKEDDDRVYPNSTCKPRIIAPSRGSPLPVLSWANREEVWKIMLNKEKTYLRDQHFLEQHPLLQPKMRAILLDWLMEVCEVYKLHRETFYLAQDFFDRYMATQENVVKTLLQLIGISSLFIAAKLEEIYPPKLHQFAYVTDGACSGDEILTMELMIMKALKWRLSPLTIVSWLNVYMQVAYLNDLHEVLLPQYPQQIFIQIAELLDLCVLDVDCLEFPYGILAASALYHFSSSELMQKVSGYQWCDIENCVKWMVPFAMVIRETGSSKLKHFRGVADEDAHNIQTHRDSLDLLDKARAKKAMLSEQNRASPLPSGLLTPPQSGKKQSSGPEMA
Chain of Cyclin E1 (Q96SW2 whole entry): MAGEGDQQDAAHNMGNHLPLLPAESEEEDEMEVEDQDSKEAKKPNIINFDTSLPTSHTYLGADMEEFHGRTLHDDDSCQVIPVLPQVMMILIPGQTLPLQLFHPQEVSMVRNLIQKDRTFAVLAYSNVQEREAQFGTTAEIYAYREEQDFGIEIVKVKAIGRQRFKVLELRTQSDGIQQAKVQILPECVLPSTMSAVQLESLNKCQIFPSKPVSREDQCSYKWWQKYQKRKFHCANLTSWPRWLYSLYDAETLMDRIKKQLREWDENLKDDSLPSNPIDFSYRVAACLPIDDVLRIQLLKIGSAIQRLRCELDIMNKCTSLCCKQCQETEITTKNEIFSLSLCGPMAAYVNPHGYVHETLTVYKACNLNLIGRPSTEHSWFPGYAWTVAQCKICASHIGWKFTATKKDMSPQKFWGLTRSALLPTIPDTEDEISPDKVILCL
Chain of Cyclin E1 (Q16531 whole entry partner): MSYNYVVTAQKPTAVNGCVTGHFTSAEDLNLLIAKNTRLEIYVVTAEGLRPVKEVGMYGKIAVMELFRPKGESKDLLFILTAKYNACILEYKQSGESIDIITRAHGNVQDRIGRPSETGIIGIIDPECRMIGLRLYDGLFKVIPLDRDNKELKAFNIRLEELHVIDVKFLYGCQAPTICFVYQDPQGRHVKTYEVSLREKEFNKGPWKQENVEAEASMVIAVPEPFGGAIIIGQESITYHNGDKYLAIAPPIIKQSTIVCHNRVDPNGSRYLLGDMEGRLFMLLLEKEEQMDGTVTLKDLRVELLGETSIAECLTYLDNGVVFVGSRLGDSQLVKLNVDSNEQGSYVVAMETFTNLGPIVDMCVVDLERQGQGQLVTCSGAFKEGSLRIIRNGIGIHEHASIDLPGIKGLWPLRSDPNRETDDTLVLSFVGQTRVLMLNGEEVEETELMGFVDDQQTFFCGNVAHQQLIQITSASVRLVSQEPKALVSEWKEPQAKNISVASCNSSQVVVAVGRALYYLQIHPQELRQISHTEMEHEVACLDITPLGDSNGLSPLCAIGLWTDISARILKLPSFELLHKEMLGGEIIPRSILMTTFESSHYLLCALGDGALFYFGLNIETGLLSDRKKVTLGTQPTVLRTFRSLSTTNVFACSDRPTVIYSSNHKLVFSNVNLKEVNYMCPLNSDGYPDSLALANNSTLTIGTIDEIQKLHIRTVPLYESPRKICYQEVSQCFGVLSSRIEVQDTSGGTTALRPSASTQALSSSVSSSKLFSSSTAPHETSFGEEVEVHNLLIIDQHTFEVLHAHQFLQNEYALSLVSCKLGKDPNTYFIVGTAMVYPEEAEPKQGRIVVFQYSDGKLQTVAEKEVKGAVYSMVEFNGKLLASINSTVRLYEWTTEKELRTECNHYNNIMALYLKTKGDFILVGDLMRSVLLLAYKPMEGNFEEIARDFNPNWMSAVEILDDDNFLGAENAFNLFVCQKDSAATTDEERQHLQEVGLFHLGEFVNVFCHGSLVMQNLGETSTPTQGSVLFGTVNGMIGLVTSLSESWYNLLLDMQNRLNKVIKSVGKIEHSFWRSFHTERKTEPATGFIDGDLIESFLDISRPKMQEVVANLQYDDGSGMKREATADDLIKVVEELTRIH
Chain of GSPT1 (P15170 whole entry, the tested form may be a part): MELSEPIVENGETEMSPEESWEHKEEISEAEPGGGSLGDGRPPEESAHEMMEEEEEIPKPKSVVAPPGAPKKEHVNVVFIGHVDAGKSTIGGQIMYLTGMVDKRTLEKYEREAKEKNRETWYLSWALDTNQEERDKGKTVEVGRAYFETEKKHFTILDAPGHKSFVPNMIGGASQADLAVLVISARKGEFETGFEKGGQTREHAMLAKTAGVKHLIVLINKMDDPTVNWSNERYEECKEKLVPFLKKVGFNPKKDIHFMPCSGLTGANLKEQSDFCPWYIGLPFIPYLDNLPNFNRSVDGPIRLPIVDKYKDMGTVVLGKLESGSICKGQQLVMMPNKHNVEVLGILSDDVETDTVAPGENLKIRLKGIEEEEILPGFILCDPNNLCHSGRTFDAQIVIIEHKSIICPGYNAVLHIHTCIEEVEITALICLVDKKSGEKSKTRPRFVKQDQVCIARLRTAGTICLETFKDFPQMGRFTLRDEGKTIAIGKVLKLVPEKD
Chain of GSPT1 (Q96SW2 whole entry, the tested form may be a part): as the sequence (Q96SW2 whole entry) above
Chain of GSPT1 (Q16531 whole entry partner, the tested form may be a part): as the sequence (Q16531 whole entry partner) above

SMILES	IC50 (Phospho-Rb (Ser807/811))	Emax (Phospho-Rb (Ser807/811))	DC50 (Cyclin E1)	Dmax (Cyclin E1)	Ratio of GSPT1 DC50/Cyclin E1 DC50 (Cyclin E1)	DC50 (GSPT1)	Dmax (GSPT1)
COc1c(COC(=O)Nc2ccc(Oc3ccc(Cl)c(F)c3)cc2F)ccc2c1C(=O)N(C1CCC(=O)NC1=O)C2 (centres unmarked) [Example 91, [2-(2,6-dioxopiperidin-3-yl)-4-methoxy-3-oxo-2,3-dihydro-1H-isoindol-5-yl]methyl N-[4-(4-chloro-3-fluorophenoxy)-2-fluorophenyl]carbamate]	160 nM	101%	223 nM	106%	>63	> 14000 nM	20%
COc1cc(F)c(F)cc1Oc1ccc(NC(=O)OCc2ccc3c(c2OC)C(=O)N(C2CCC(=O)NC2=O)C3)c(C)c1 (centres unmarked) [Example 33, [2-(2,6-dioxopiperidin-3-yl)-4-methoxy-3-oxo-2,3-dihydro-1H-isoindol-5-yl]methyl N-[4-(4,5-difluoro-2-methoxyphenoxy)-2-methylphenyl]carbamate]	809 nM	87%	1630 nM	85%	>9	> 14000 nM	8%
COc1c(COC(=O)Nc2ccc(Oc3cccc(F)c3)cc2C)ccc2c1C(=O)N(C1CCC(=O)NC1=O)C2 (centres unmarked) [Example 39, [2-(2,6-dioxopiperidin-3-yl)-4-methoxy-3-oxo-2,3-dihydro-1H-isoindol-5-yl]methyl N-[4-(3-fluorophenoxy)-2-methylphenyl]carbamate]	127 nM	111%	103 nM	108%	>136	> 14000 nM	20%
COc1c(COC(=O)Nc2ccc(Oc3cc(F)c(F)c(F)c3)cc2)ccc2c1C(=O)N(C1CCC(=O)NC1=O)C2 (centres unmarked) [Example 77, [2-(2,6-dioxopiperidin-3-yl)-4-methoxy-3-oxo-2,3-dihydro-1H-isoindol-5-yl]methyl N-[4-(3,4,5-trifluorophenoxy)phenyl]carbamate]	163 nM	94%	284 nM	113%	>49	> 14000 nM	32%
COc1c(COC(=O)Nc2ccc(Cc3cc(F)c(F)c(F)c3)cc2)ccc2c1C(=O)N(C1CCC(=O)NC1=O)C2 (centres unmarked) [Example 19, [2-(2,6-dioxopiperidin-3-yl)-4-methoxy-3-oxo-2,3-dihydro-1H-isoindol-5-yl]methyl N-{4-[(3,4,5-trifluorophenyl)methyl]phenyl}carbamate]	701 nM	92%	146 nM	105%	>96	> 14000 nM	9%
COc1c(COC(=O)Nc2ccc(Oc3ccc(F)cc3F)cc2)ccc2c1C(=O)N(C1CCC(=O)NC1=O)C2 (centres unmarked) [Example 5, [2-(2,6-dioxopiperidin-3-yl)-4-methoxy-3-oxo-2,3-dihydro-1H-isoindol-5-yl]methyl N-[4-(2,4-difluorophenoxy)phenyl]carbamate]	3 nM	131%	299 nM	118%	>47	> 14000 nM	33%
COC(=O)COc1c(COC(=O)Nc2ccc(Oc3ccc(F)c(F)c3)cc2)ccc2c1C(=O)N(C1CCC(=O)NC1=O)C2 (centres unmarked) [Example 174, Methyl 2-({5-[({[4-(3,4-difluorophenoxy)phenyl]carbamoyl}oxy)methyl]-2-(2,6-dioxopiperidin-3-yl)-3-oxo-2,3-dihydro-1H-isoindol-4-yl}oxy)acetate]	473 nM	99%	204 nM	100%	>69	> 14000 nM	16%
COc1c(COC(=O)Nc2ccc(Oc3ccc(F)cc3)cc2F)ccc2c1C(=O)N(C1CCC(=O)NC1=O)C2 (centres unmarked) [Example 28, [2-(2,6-dioxopiperidin-3-yl)-4-methoxy-3-oxo-2,3-dihydro-1H-isoindol-5-yl]methyl N-[2-fluoro-4-(4-fluorophenoxy)phenyl]carbamate]	100 nM	106%	110 nM	103%	>127	> 14000 nM	45%
COc1cc(Oc2ccc(F)c(F)c2)ccc1NC(=O)OCc1ccc2c(c1OC)C(=O)N(C1CCC(=O)NC1=O)C2 (centres unmarked) [Example 47, [2-(2,6-dioxopiperidin-3-yl)-4-methoxy-3-oxo-2,3-dihydro-1H-isoindol-5-yl]methyl N-[4-(3,4-difluorophenoxy)-2-methoxyphenyl]carbamate]	361 nM	107%	320 nM	101%	>44	> 14000 nM	20%
O=C1CCC(N2Cc3ccc(COC(=O)Nc4ccc(Oc5ccc(F)c(F)c5)cc4)c(O[C@H]4CC[C@H](O)CC4)c3C2=O)C(=O)N1 (stereo partly drawn) [Example 166, [2-(2,6-dioxopiperidin-3-yl)-3-oxo-4-{[(1R,4R)-4-hydroxycyclohexyl]oxy}-2,3-dihydro-1H-isoindol-5-yl]methyl N-[4-(3,4-difluorophenoxy)phenyl]carbamate]	95 nM	134%	87 nM	108%	>160	> 14000 nM	27%
COc1c(COC(=O)Nc2ccc(Oc3ccccc3F)cc2)ccc2c1C(=O)N(C1CCC(=O)NC1=O)C2 (centres unmarked) [Example 79, [2-(2,6-dioxopiperidin-3-yl)-4-methoxy-3-oxo-2,3-dihydro-1H-isoindol-5-yl]methyl N-[4-(2-fluorophenoxy)phenyl]carbamate]	128 nM	120%	375 nM	112%	>37	> 14000 nM	31%
COc1c(COC(=O)Nc2ccc(Oc3ccc(F)cc3Cl)cc2)ccc2c1C(=O)N(C1CCC(=O)NC1=O)C2 (centres unmarked) [Example 102, [2-(2,6-dioxopiperidin-3-yl)-4-methoxy-3-oxo-2,3-dihydro-1H-isoindol-5-yl]methyl N-[4-(2-chloro-4-fluorophenoxy)phenyl]carbamate]	121 nM	120%	59 nM	108%	>236	> 14000 nM	35%
COc1c(COC(=O)Nc2ccc(Oc3ccc(F)cc3F)cc2C)ccc2c1C(=O)N(C1CCC(=O)NC1=O)C2 (centres unmarked) [Example 42, [2-(2,6-dioxopiperidin-3-yl)-4-methoxy-3-oxo-2,3-dihydro-1H-isoindol-5-yl]methyl N-[4-(2,4-difluorophenoxy)-2-methylphenyl]carbamate]	132 nM	110%	96 nM	106%	>146	> 14000 nM	20%
O=C1CCC(N2Cc3ccc(COC(=O)Nc4ccc(Oc5ccc(F)c(F)c5)cc4)c(O[C@@H]4CCCOC4)c3C2=O)C(=O)N1 (stereo partly drawn) [Example 141, [2-(2,6-dioxopiperidin-3-yl)-4-[(3R)-oxan-3-yloxy]-3-oxo-2,3-dihydro-1H-isoindol-5-yl]methyl N-[4-(3,4-difluorophenoxy)phenyl]carbamate]	55 nM	136%	34 nM	112%	>418	> 14000 nM	9%
